Experimental data published in ChEMBL document CHEMBL3044617, “N-[2(3-Carboxyl-9-benzyl-carboline-1-yl)ethyl-1-yl]-amino acids: correlation of spectral property with in vivo anti-tumor activity” (2012).
The source made the active and inactive calls. The calls are words filed in the database; no cut-off is given here.

How the values were obtained:
[1] = system: CCRF S-180; assay: Antitumor activity against Mus musculus (mouse) S180 cells xenografted in ICR Mus musculus (mouse) assessed as tumor growth inhibition at 89 umol/kg, ip qd for 7 days measured after 24 hr of last dose relative to control; format: functional; details: CCRF S-180, ip, read-out: TGI
[2] = system: DNA; assay: Binding affinity to Bos taurus (calf) thymus DNA assessed as change melting temperature at 20 uM; format: nucleic-acid assay
[3] = system: DNA; assay: Binding affinity to Bos taurus (calf) thymus DNA assessed as hypsochromic shift at 20 uM by UV spectra analysis; format: nucleic-acid assay
[4] = system: DNA; assay: Binding affinity to Bos taurus (calf) thymus DNA assessed as decrease in fluorescence intensity at 0.5 uM by fluorescence quenching assay; format: nucleic-acid assay; parameters: scale not given: the % may be the effect or the level left
[5] = system: DNA; assay: Binding affinity to Bos taurus (calf) thymus DNA assessed as change in DNA viscosity; format: nucleic-acid assay
[6] = system: DNA; assay: Binding affinity to Bos taurus (calf) thymus DNA assessed as melting temperature at 20 uM (reference value: 60.3 degC); format: nucleic-acid assay
[7] = system: DNA; assay: Binding affinity to Bos taurus (calf) thymus DNA assessed as bathochromic shift at 0.5 uM by fluorescence quenching assay; format: nucleic-acid assay
[8] = system: DNA; assay: Binding affinity to Bos taurus (calf) thymus DNA assessed as positive band intensity at 100 uM after 24 hr by CD spectra analysis (reference value: 21429 +/- 276 deg cm2/dmol'-1); format: nucleic-acid assay
[9] = system: DNA; assay: Binding affinity to Bos taurus (calf) thymus DNA assessed as negative band intensity at 100 uM after 24 hr by CD spectra analysis (reference value: -15209 +/- 245 deg cm2/dmol'-1); format: nucleic-acid assay
[10] = system: DNA; assay: Binding affinity to Bos taurus (calf) thymus DNA assessed as hypochromic effect at 20 uM by UV spectra analysis; format: nucleic-acid assay

ΔTm [2] | Activity [3] | Activity [4] | Activity [5] | Tm [6] | Activity [7] | molecular ellipticity [8] | molecular ellipticity [9] | Activity [10] | Compound | inhibition in vivo at 89 µmol/kg [1]
– | – | – | – | – | – | – | – | – | Nc1ccn([C@@H]2O[C@H](CO)[C@@H](O)[C@@H]2O)c(=O)n1 [CYTARABINE] | 54.8%
11.9 °C | 4.8 nm | 58.7% | Active | 72.2 °C | 4.4 nm | 28900 deg.cm2/dmol | -1080 deg.cm2/dmol | 30.5% | O=C(O)c1cc2c3ccccc3n(Cc3ccccc3)c2c(CCN[C@@H](Cc2ccc(O)cc2)C(=O)O)n1 | 48.6%
10.8 °C | 4.8 nm | 42.4% | Active | 71.1 °C | 4.6 nm | 10100 deg.cm2/dmol | -23700 deg.cm2/dmol | 29.6% | O=C(O)c1cc2c3ccccc3n(Cc3ccccc3)c2c(CCN[C@@H](CO)C(=O)O)n1 | 35.3%
12.9 °C | 3.4 nm | 63.9% | Active | 73.2 °C | 8.2 nm | 2750 deg.cm2/dmol | -36300 deg.cm2/dmol | 32% | O=C(O)C[C@H](NCCc1nc(C(=O)O)cc2c3ccccc3n(Cc3ccccc3)c12)C(=O)O | 34.7%
4.9 °C | 0 nm | 32.6% | Active | 65.4 °C | 2.2 nm | 17400 deg.cm2/dmol | -5800 deg.cm2/dmol | 0% | C[C@@H](O)[C@H](NCCc1nc(C(=O)O)cc2c3ccccc3n(Cc3ccccc3)c12)C(=O)O | -29.1%
